# Reference: US6537992B2, “Regulation of organic nitrate tolerance” (priority 2001, dated 2003)
# Columns and labels:
# [1] = Forearm blood flow by strain gauge plethysmography at rest and in response to sublingual nitroglycerin; format: in vivo, human; conditions: sublingual GTN 0.6 mg, before continuous GTN therapy, both groups
# Procedure: (§1) Normal volunteers (n=20) were randomized in a double bind, placebo-controlled fashion to either oral folate (5 mg per day) or placebo. After 1 week of this double-blind therapy, subjects returned to the laboratory. At that time, measures of standing systolic blood pressure and heart rate were recorded. Subsequently, measurements of forearm blood flow were made at rest and in response to sublingual nitroglycerin (0.6 mg). […] A Randomized Double-blind, Placebo-controlled Study, J Cardiovasc Pharm. 1999;34:645-659.
# (§2) Subsequently all subjects all received transdermal GTN (0.6 mg/hr). Standing heart rate and blood pressure responses were repeated 3 hours after initial patch application. Subjects were discharged from the laboratory with instructions to take transdermal GTN continuously for the next 5 to 7 days, changing the patch each day at 0800 hours. After 5 to 7 days, subjects returned to the laboratory where measures of standing systolic blood pressure and heart rate as well as forearm blood flow were repeated.
# [2] = Standing systolic blood pressure and heart rate in normal volunteers during transdermal GTN, with oral folate or placebo; format: in vivo, human; conditions: acute transdermal GTN 0.6 mg/hr, 3 hours after initial patch application, both placebo and folate groups
# Procedure: as §1, §2
structure (smiles),measurement,setting,value
"O=[N+]([O-])OCC(CO[N+](=O)[O-])O[N+](=O)[O-] [GTN, glyceryl trinitrate]",forearm blood flow after sublingual administration,[1],"similar, significant increase"
same,heart rate after acute administration,[2],significant increase
same,systolic blood pressure after acute administration,[2],significant fall
